According to ChEMBL document CHEMBL5360646, “Optimization of M3 Antagonist-PDE4 Inhibitor (MAPI) Dual Pharmacology Molecules for the Treatment of COPD” (J Med Chem, 2023):
Values after ≈ are worked out from the molar mass of the structure shown. Active and inactive are the calls of the source. No cut-off for these calls is given here.

Experiments:
Rattus norvegicus [1] = test: Anti-inflammatory activity against OVA-sensitized Brown-Norway rat airway inflammation model assessed as inhibition of OVA-induced eosinophil influx in BALF at 30 nmol/kg, IT(Intratracheal) pretreated 24 hrs prior to OVA challenge and measured after 48 hrs by automated cell counter analysis; assay type: functional; parameters: scale not given: the % may be the effect or the level left
[2] = Solubility of compound simulated lung fluid at 1 mg/ml and measured at 2 hr by UPLC-MS analysis; assay type: physicochemical
[3] = Antiinflammatory activity against LPS-stimulated human PBMC cells assessed reduction in TNFalpha level incubated for 18 hrs by ELISA analysis; assay type: functional, cell-based; conditions: Homo sapiens, PBMC, 18 h
[4] = biological target: cGMP-inhibited 3',5'-cyclic phosphodiesterase 3A (Homo sapiens) (UniProt Q14432); test: Inhibition of human recombinant PDE3A expressed in baculovirus expression system using cAMP as substrate at 1 uM by radiometric assay
Sequence of cGMP-inhibited 3',5'-cyclic phosphodiesterase 3A (Homo sapiens) (Q14432 whole entry): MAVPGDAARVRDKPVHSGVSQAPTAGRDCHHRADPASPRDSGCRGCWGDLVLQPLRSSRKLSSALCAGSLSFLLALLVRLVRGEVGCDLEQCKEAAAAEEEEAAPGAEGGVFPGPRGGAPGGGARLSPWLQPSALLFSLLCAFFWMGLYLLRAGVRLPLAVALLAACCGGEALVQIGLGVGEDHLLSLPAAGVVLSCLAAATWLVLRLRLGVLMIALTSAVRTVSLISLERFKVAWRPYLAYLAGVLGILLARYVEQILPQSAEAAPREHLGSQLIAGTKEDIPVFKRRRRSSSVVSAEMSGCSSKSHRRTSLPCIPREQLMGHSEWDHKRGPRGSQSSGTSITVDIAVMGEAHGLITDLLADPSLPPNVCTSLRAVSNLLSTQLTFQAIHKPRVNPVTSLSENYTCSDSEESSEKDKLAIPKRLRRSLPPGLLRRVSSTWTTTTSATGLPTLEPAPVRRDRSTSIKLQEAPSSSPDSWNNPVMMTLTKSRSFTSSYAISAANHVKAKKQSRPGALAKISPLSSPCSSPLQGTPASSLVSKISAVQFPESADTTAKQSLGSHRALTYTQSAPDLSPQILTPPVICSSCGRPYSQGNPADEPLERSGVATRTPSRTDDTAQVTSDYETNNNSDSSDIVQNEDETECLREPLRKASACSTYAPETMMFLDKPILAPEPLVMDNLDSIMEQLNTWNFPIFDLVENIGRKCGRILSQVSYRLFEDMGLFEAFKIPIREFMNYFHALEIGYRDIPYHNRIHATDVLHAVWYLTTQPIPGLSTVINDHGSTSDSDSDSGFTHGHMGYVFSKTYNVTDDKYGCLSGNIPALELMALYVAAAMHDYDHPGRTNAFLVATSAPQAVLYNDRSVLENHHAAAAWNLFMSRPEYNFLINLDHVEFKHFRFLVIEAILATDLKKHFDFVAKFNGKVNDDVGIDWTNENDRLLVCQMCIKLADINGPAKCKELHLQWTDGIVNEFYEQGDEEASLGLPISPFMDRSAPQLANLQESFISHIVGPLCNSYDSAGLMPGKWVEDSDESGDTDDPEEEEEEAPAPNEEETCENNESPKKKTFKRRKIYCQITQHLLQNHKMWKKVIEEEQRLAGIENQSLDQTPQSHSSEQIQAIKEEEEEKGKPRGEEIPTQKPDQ

[5] = Solubility of compound simulated lung fluid at 1 mg/ml and measured at 0 hr by UPLC-MS analysis; assay type: physicochemical
Trachea = test: Bronchoconstriction activity in Sprague-Dawley rat trachea assessed as inhibition of carbachol-induced tracheal contraction; assay type: functional, tissue-based; conditions: Rattus norvegicus, Sprague-Dawley, Trachea
[6] = biological target: 3',5'-cyclic-AMP phosphodiesterase 4A (Homo sapiens, UniProt P27815); test: Inhibition of human recombinant PDE4A4 expressed in baculovirus expression system using cAMP as substrate by radiometric assay
Sequence of 3',5'-cyclic-AMP phosphodiesterase 4A (P27815 whole entry): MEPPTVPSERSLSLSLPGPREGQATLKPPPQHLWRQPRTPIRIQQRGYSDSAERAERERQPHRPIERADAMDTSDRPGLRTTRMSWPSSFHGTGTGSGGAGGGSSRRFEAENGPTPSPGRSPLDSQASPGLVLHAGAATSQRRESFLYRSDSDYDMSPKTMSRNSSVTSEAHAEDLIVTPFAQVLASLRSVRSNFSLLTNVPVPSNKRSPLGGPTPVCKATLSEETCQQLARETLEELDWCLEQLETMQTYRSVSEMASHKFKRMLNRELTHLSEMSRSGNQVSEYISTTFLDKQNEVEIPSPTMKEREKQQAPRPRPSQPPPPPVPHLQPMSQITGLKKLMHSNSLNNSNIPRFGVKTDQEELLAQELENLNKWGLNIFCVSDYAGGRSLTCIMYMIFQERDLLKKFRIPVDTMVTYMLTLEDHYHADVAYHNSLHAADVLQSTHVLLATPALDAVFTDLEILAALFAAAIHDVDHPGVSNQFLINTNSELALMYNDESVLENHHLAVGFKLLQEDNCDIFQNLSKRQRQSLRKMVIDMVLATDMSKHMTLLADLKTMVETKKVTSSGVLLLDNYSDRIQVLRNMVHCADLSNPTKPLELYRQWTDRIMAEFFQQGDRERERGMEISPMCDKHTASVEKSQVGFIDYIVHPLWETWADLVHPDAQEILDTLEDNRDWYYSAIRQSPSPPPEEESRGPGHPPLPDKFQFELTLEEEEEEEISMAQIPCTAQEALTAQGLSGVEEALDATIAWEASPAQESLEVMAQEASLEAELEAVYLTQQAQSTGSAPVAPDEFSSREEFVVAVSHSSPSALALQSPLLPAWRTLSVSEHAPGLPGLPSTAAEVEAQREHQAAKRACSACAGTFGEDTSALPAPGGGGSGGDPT

Rattus norvegicus [7] = test: Anti-inflammatory activity against OVA-sensitized Brown-Norway rat airway inflammation model assessed as inhibition of OVA-induced eosinophil influx at 10 nmol/kg,IT(Intratracheal) pretreated 2 hrs prior to OVA challenge by automated cell counter analysis; assay type: functional; parameters: scale not given: the % may be the effect or the level left
[8] = AUClast in Sprague-Dawley rat plasma at 10 ug,IT(Intratracheal) by HPLC-MS/MS analysis; assay type: ADME, cell-free; parameters: dose 10 µg, route it(Intratracheal); conditions: inhaled or intranasal
[9] = Toxicity in ferret assessed as emetic response at 10 nmol/kg, IT(Intratracheal) and measured for 4 hrs by behavioral analysis; parameters: species or system Mustela putorius furo; conditions: in vivo, inhaled_or_intranasal
[10] = biological target: T1, 3',5'-cyclic-AMP phosphodiesterase 4B (Homo sapiens, UniProt Q07343); test: Inhibition of human recombinant PDE4B2 expressed in baculovirus expression system using cAMP as substrate incubated for 2 hrs by HTRF assay
T1 sequence (Q07343 whole entry): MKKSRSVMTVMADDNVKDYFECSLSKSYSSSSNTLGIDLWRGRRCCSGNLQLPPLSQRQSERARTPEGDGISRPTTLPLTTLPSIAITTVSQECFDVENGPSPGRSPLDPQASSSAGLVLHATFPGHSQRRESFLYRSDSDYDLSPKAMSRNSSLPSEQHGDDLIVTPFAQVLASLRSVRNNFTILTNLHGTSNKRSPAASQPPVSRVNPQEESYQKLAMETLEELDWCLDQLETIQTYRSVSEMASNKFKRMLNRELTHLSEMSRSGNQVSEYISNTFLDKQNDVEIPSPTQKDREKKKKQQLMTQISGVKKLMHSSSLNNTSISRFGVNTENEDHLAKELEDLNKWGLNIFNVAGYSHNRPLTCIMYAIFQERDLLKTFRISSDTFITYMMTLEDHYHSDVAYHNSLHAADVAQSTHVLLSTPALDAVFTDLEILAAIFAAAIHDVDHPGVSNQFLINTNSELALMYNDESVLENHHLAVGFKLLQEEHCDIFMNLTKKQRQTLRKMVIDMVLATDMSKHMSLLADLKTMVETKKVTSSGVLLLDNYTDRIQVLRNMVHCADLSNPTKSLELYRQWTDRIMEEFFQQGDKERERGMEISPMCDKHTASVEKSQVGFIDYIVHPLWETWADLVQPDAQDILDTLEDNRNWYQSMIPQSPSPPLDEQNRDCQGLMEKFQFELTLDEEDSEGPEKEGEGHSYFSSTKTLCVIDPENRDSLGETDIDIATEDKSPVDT

Rattus norvegicus [11] = test: Anti-inflammatory activity against OVA-sensitized Brown-Norway rat airway inflammation model assessed as inhibition of OVA-induced eosinophil influx at 100 nmol/kg,IT(Intratracheal) pretreated 2 hrs prior to OVA challenge by automated cell counter analysis; assay type: functional; parameters: scale not given: the % may be the effect or the level left
[12] = AUC (0 to infinity) in Sprague-Dawley rat lung at 10 ug,IT(Intratracheal) by HPLC-MS/MS analysis; assay type: ADME, tissue-based; parameters: dose 10 µg, route it(Intratracheal); conditions: in vivo, inhaled_or_intranasal
[13] = biological target: cGMP-specific 3',5'-cyclic phosphodiesterase (Homo sapiens) (UniProt O76074); test: Inhibition of human recombinant PDE5 catalytic domain expressed in baculovirus expression system using […] as substrate at 1 uM by radiometric assay
[14] = Toxicity in pilocarpine hydrochloride induced salivation Sprague-Dawley rat model assessed as inhibition of salivary secretion at 3 mM,INH for 10 mins; conditions: in vivo, inhaled_or_intranasal, 10 min, 3000 µM
[15] = Ratio of ED50 for Anti-inflammatory activity against OVA-sensitized Brown-Norway rat airway inflammation model to ED50 for Anti-bronchospastic activity in carbachol-induced bronchospasm Sprague-Dawley rat model; assay type: functional
[16] = Half life in Sprague-Dawley rat lung at 10 ug,IT(Intratracheal) by HPLC-MS/MS analysis; assay type: ADME, tissue-based; conditions: inhaled or intranasal, dose 10 µg
[17] = Cmax in Sprague-Dawley rat lung at 10 ug,IT(Intratracheal) by HPLC-MS/MS analysis; assay type: ADME, tissue-based; parameters: dose 10 µg, route it(Intratracheal); conditions: inhaled or intranasal
Rattus norvegicus [18] = test: Anti-bronchospastic activity in carbachol-induced bronchospasm Sprague-Dawley rat model assessed as inhibition of carbachol-induced bronchoconstriction at 30 nmol/kg, IT(Intratracheal) administered 1 hr prior to carbachol challenge; assay type: functional; parameters: scale not given: the % may be the effect or the level left
Rattus norvegicus [19] = test: Anti-inflammatory activity against OVA-sensitized Brown-Norway rat airway inflammation model assessed as inhibition of OVA-induced eosinophil influx at 10 nmol/kg,IT(Intratracheal) pretreated 24 hrs prior to OVA challenge and measured after 48 hrs by automated cell counter analysis; assay type: functional; parameters: scale not given: the % may be the effect or the level left
Rattus norvegicus [20] = test: Anti-inflammatory activity against OVA-sensitized Brown-Norway rat airway inflammation model assessed as inhibition of OVA-induced eosinophil influx at 100 nmol/kg,IT(Intratracheal) pretreated 24 hrs prior to OVA challenge and measured after 48 hrs by automated cell counter analysis; assay type: functional; parameters: scale not given: the % may be the effect or the level left; conditions: time 72 hrs
[21] = biological target: T2, Muscarinic acetylcholine receptor M2 (Homo sapiens, UniProt P08172); test: Displacement of [3H]N-methylscopolamine chloride from human muscarinic M2 receptor incubated for 2 hrs by radioligand binding assay
T2 sequence (P08172 whole entry): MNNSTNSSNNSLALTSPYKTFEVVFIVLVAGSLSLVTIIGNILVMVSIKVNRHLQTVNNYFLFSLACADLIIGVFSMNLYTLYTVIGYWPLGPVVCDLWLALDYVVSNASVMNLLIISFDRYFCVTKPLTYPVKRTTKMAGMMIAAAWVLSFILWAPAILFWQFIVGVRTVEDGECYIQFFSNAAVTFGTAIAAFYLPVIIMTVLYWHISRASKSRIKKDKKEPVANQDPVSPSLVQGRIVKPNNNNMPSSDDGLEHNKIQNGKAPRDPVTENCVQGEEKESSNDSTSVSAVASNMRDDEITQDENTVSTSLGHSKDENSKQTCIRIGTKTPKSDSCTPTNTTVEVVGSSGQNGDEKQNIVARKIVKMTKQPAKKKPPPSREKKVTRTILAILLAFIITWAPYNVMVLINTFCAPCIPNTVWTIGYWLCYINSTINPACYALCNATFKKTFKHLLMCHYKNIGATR

Rattus norvegicus [22] = test: Anti-inflammatory activity against OVA-sensitized Brown-Norway rat airway inflammation model assessed as inhibition of OVA-induced eosinophil influx administered IT(Intratracheal) 2 hrs prior to OVA challenge; assay type: functional
Rattus norvegicus [23] = test: Anti-bronchospastic activity in carbachol-induced bronchospasm Sprague-Dawley rat model assessed as inhibition of carbachol-induced bronchoconstriction at 30 nmol/kg, IT(Intratracheal) administered 16 hr prior to carbachol challenge; assay type: functional; parameters: scale not given: the % may be the effect or the level left
[24] = Toxicity in pilocarpine hydrochloride induced salivation Sprague-Dawley rat model assessed as inhibition of salivary secretion at 1 mM,INH for 10 mins; conditions: in vivo, inhaled_or_intranasal, 1000 µM
Rattus norvegicus [25] = test: Anti-inflammatory activity against OVA-sensitized Brown-Norway rat airway inflammation model assessed as inhibition of OVA-induced eosinophil influx administered IT(Intratracheal) pretreated 24 hrs prior to OVA challenge and measured after 48 hrs by automated cell counter analysis; assay type: functional; conditions: time 72 hrs
[26] = biological target: Dual specificity calcium/calmodulin-dependent 3',5'-cyclic nucleotide phosphodiesterase 1A (Homo sapiens) (UniProt P54750); test: Inhibition of human recombinant PDE1A3 expressed in baculovirus expression system using cAMP as substrate at 1 uM by radiometric assay
Sequence of Dual specificity calcium/calmodulin-dependent 3',5'-cyclic nucleotide phosphodiesterase 1A (Homo sapiens) (P54750 whole entry): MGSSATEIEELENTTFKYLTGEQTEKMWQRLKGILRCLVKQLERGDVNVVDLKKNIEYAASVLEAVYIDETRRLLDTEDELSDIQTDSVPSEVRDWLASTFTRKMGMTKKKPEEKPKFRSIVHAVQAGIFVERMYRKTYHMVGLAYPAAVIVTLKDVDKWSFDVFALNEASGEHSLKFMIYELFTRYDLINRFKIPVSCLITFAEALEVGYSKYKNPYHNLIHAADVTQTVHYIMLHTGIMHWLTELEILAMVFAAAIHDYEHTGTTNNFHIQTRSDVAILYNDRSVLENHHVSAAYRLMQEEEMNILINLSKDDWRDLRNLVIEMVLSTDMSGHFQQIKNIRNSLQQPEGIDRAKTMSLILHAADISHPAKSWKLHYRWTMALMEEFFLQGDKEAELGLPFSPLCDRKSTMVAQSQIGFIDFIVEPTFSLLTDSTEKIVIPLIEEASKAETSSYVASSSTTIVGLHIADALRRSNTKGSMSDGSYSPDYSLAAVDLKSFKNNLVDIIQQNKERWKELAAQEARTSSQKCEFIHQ

[27] = biological target: T1, 3',5'-cyclic-AMP phosphodiesterase 4B; test: Inhibition of human recombinant PDE4B2 expressed in baculovirus expression system using cAMP as substrate by radiometric assay
Rattus norvegicus [28] = test: Anti-bronchospastic activity in carbachol-induced bronchospasm Sprague-Dawley rat model assessed as inhibition of carbachol-induced bronchoconstriction administered IT(Intratracheal) for 1 hr prior to carbachol challenge; assay type: functional; conditions: Rattus norvegicus, Sprague-Dawley, read-out: ED50
[29] = biological target: 3',5'-cyclic-AMP phosphodiesterase 4C (Homo sapiens, UniProt Q08493); test: Inhibition of human recombinant PDE4C2 expressed in baculovirus expression system using cAMP as substrate by radiometric assay
Rattus norvegicus [30] = test: Anti-inflammatory activity against OVA-sensitized Brown-Norway rat airway inflammation model assessed as inhibition of OVA-induced eosinophil influx at 1000 nmol/kg,IT(Intratracheal) pretreated 24 hrs prior to OVA challenge and measured after 48 hrs by automated cell counter analysis; assay type: functional; parameters: scale not given: the % may be the effect or the level left; conditions: time 72 hrs
Rattus norvegicus [31] = test: Anti-inflammatory activity against OVA-sensitized Brown-Norway rat airway inflammation model assessed as inhibition of OVA-induced eosinophil influx at 1 nmol/kg,IT(Intratracheal) pretreated 2 hrs prior to OVA challenge by automated cell counter analysis; assay type: functional; parameters: scale not given: the % may be the effect or the level left
[32] = Toxicity in ferret assessed as emetic response at 10 nmol/kg,po and measured for 4 hrs by behavioral analysis; parameters: species or system Mustela putorius furo; conditions: in vivo
[33] = Cmax in Sprague-Dawley rat plasma at 10 ug,IT(Intratracheal) by HPLC-MS/MS analysis; assay type: ADME, cell-free; parameters: dose 10 µg, route it(Intratracheal); conditions: inhaled or intranasal
[34] = biological target: Muscarinic acetylcholine receptor M3 (Homo sapiens, UniProt P20309); test: Displacement of [3H]N-methylscopolamine chloride from human muscarinic M3 receptor incubated for 2 hrs by radioligand binding assay
Sequence of Muscarinic acetylcholine receptor M3 (P20309 whole entry): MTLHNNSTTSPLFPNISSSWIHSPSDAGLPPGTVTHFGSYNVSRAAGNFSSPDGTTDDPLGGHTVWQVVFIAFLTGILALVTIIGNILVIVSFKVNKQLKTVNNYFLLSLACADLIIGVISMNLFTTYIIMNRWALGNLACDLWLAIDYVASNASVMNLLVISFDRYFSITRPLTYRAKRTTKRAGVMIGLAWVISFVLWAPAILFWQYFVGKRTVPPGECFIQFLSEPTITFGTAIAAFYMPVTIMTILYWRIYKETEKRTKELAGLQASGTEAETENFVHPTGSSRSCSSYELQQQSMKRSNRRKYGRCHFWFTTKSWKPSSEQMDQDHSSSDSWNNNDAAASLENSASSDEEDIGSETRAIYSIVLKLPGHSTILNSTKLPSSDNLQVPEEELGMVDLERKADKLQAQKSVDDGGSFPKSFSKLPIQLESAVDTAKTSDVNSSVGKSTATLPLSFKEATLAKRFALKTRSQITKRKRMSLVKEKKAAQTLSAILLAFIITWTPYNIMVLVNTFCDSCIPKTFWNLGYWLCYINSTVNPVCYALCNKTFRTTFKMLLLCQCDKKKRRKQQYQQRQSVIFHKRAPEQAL

[35] = biological target: 3',5'-cyclic-AMP phosphodiesterase 4D (Homo sapiens, UniProt Q08499); test: Inhibition of human recombinant PDE4D3 expressed in baculovirus expression system using cAMP as substrate by radiometric assay
Sequence of 3',5'-cyclic-AMP phosphodiesterase 4D (Q08499 whole entry): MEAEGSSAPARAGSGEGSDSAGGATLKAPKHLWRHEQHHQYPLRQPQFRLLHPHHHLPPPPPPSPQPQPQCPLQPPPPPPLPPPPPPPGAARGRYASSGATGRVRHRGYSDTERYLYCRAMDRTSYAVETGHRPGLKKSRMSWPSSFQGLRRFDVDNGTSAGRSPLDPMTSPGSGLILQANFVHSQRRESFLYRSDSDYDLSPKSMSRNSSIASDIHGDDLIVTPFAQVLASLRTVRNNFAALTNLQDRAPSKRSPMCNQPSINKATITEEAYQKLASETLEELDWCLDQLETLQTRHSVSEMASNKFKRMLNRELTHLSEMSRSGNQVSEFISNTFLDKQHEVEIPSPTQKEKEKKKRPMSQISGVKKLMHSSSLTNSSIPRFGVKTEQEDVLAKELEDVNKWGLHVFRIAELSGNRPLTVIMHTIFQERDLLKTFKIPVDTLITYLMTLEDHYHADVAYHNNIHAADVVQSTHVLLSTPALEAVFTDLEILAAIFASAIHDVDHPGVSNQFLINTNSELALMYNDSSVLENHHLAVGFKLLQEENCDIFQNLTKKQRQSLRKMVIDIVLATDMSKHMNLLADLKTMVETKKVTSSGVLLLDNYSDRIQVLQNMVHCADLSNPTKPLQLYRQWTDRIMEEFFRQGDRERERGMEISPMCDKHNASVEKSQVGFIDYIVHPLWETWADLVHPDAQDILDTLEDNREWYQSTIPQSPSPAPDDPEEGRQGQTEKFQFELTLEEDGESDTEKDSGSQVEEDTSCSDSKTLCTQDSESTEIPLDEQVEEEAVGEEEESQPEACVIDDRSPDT

[36] = Toxicity in ferret assessed as appearance of nausea-like behavior at 10 nmol/kg, IT(Intratracheal) and measured for 4 hrs by behavioral analysis; parameters: species or system Mustela putorius furo; conditions: in vivo, inhaled_or_intranasal
[37] = Toxicity in ferret assessed as appearance of nausea-like behavior at 10 nmol/kg,po and measured for 4 hrs by behavioral analysis; parameters: species or system Mustela putorius furo; conditions: in vivo
Rattus norvegicus [38] = test: Anti-bronchospastic activity in carbachol-induced bronchospasm Sprague-Dawley rat model assessed as inhibition of carbachol-induced bronchoconstriction at 3 nmol/kg, IT(Intratracheal) administered 1 hr prior to carbachol challenge; assay type: functional; parameters: scale not given: the % may be the effect or the level left
[39] = Metabolic stability in rat plasma assessed as half life at 5 uM and measured upto 180 mins by HPLC-MS/MS analysis; assay type: ADME, cell-free
[40] = Metabolic stability in human lung S9 fraction assessed as half life at 1 uM and measured upto 60 mins in presence of NADPH by LC-MS/MS analysis; assay type: ADME, subcellular; conditions: lung S9 fraction
[41] = Metabolic stability in human plasma assessed as half life at 5 uM and measured upto 180 mins by HPLC-MS/MS analysis; assay type: ADME, cell-free
[42] = Metabolic stability in rat liver microsomes assessed as intrinsic clerance at 1 uM and measured upto 60 mins by HPLC-MS/MS analysis; assay type: ADME, Microsome; conditions: liver microsomes, read-out: CLH
[43] = Antiinflammatory activity against LPS-stimulated rat PBMC cells assessed reduction in TNFalpha level incubated for 18 hrs by ELISA analysis; assay type: functional, cell-based
[44] = Metabolic stability in human liver microsomes assessed as intrinsic clerance at 1 uM and measured upto 60 mins by HPLC-MS/MS analysis; assay type: ADME, Microsome; conditions: liver microsomes, read-out: CLH
Rattus norvegicus [45] = test: Anti-bronchospastic activity in carbachol-induced bronchospasm Sprague-Dawley rat model assessed as inhibition of carbachol-induced bronchoconstriction at 3 nmol/kg, IT(Intratracheal) administered 16 hr prior to carbachol challenge; assay type: functional; parameters: scale not given: the % may be the effect or the level left
[46] = Metabolic stability in rat lung S9 fraction assessed as half life at 1 uM and measured upto 60 mins in presence of NADPH by LC-MS/MS analysis; assay type: ADME, subcellular; conditions: lung S9 fraction

## CCOc1cc([C@H](Cc2c(Cl)c[n+]([O-])cc2Cl)OC(=O)c2ccc(CN[C@@](CO)(C(=O)O[C@H]3CN4CCC3CC4)c3ccccc3)s2)ccc1OC
Rattus norvegicus [1]
  Activity: 63%
[2]
  solubility at 2 h: 1.6 µg/mL (≈ 2.08 µM)
[3]
  IC50: 0.316 nM
[4]
  inhibition: inactive
[5]
  solubility at 0 h: 3.3 µg/mL (≈ 4.28 µM)
Trachea
  IC50: 12.6 nM
[6]
  IC50: 0.0316 nM
Rattus norvegicus [7]
  Activity: 60%
[8]
  AUC(0-t): 3.7 ng·h/mL
[9]
  Activity: Non-Toxic
[10]
  IC50: 1 nM
Rattus norvegicus [11]
  Activity: 92%
[12]
  AUC: 9242 ng·h/g
[13]
  inhibition: inactive
[14]
  Activity: Non-Toxic
[15]
  Ratio ED50: 1
[16]
  half-life: 258 min
[17]
  Cmax: 6270 ng/g
Rattus norvegicus [18]
  Activity: 80%
Rattus norvegicus [19]
  Activity: 45%
Rattus norvegicus [20]
  Activity: 72%
[21]
  Ki: 10 nM
Rattus norvegicus [22]
  ED50: 0.007 µmol/kg
Rattus norvegicus [23]
  Activity: 83%
[24]
  Activity: Non-Toxic
Rattus norvegicus [25]
  ED50: 0.016 µmol/kg
[26]
  inhibition: inactive
[27]
  IC50: 0.0398 nM
Rattus norvegicus [28]
  ED50: 0.007 µmol/kg
[29]
  IC50: 0.0251 nM
Rattus norvegicus [30]
  Activity: >100%
Rattus norvegicus [31]
  Activity: 28%
[32]
  Activity: Non-Toxic
[33]
  Cmax: 2 ng/mL
[34]
  Ki: 0.631 nM
[35]
  IC50: 0.398 nM
[36]
  Activity: Non-Toxic
[37]
  Activity: Non-Toxic

## COc1ccc([C@H](Cc2c(Cl)c[n+]([O-])cc2Cl)OC(=O)c2ccc(CN[C@@H](C(=O)O[C@H]3CN4CCC3CC4)c3ccccc3)s2)cc1OC
Rattus norvegicus [38]
  Activity: 74%
[3]
  IC50: 1.58 nM
Trachea
  IC50: 1 nM
[10]
  IC50: 1.58 nM
[39]
  half-life at 5 µM: 9 min
[15]
  Ratio ED50: 42
[40]
  half-life at 1 µM: 69 min
[41]
  half-life at 5 µM: 11 min
Rattus norvegicus [22]
  ED50: 0.03 µmol/kg
[42]
  microsomal CLint at 1 µM: 126 µL/min/mg
[43]
  IC50: 2 nM
[44]
  microsomal CLint at 1 µM: 213 µL/min/mg
Rattus norvegicus [28]
  ED50: 0.0007 µmol/kg
Rattus norvegicus [45]
  Activity: 67%
[34]
  Ki: 0.0631 nM
[46]
  half-life at 1 µM: 15 min
